Results: ChEMBL document CHEMBL1201862, “PubChem BioAssay data set” (2004)
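Grown in 96-well plates, cells were treated for 48 hours with each compound at five concentrations. Insufficient inhibition: endpoint recorded as highest concentration tested. GI50 is the concentration that inhibits growth by half.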 The source made the active and inactive calls. Rule as the data show it: active = GI50 up to about 1.1 µM and inactive = higher.

Legend:
Assay in all cases: NCI tumour cell line growth inhibition, 48 h
786-0 = system: 786-0
A498 = system: A498
ACHN = system: ACHN
HL-60 = system: HL-60
K562 = system: K562
KM12 = system: KM12
M14 = system: M14
MDA-N = system: MDA-N
MOLT-4 = system: MOLT-4
PC-3 = system: PC-3
RXF 393 = system: RXF 393
SF-295 = system: SF-295
SF-539 = system: SF-539
SK-MEL-28 = system: SK-MEL-28
SK-MEL-5 = system: SK-MEL-5
SNB-19 = system: SNB-19
SNB-75 = system: SNB-75
TK-10 = system: TK-10
UACC-62 = system: UACC-62
HT-29 = system: HT-29

Row | Compound | GI50 (786-0) | GI50 (A498) | GI50 (ACHN) | GI50 (HL-60) | GI50 (K562) | GI50 (KM12) | GI50 (M14) | GI50 (MDA-N) | GI50 (MOLT-4) | GI50 (PC-3) | GI50 (RXF 393) | GI50 (SF-295) | GI50 (SF-539) | GI50 (SK-MEL-28) | GI50 (SK-MEL-5) | GI50 (SNB-19) | GI50 (SNB-75) | GI50 (TK-10) | GI50 (UACC-62) | GI50 (HT-29)
1 | CC1=C(C(=O)N[C@@H](CC(C)C)C(=O)O)N2C(=O)[C@@H](NC(=O)[C@@H](N)Cc3ccccc3)[C@H]2SC1 | > 100 µM (inactive) | > 100 µM (inactive) | > 100 µM (inactive) | > 100 µM (inactive) | > 100 µM (inactive) | > 100 µM (inactive) | > 100 µM (inactive) | > 100 µM (inactive) | > 100 µM (inactive) | > 100 µM (inactive) | > 100 µM (inactive) | > 100 µM (inactive) | > 100 µM (inactive) | > 100 µM (inactive) | > 100 µM (inactive) | > 100 µM (inactive) | > 100 µM (inactive) | > 100 µM (inactive) | > 100 µM (inactive) | 
2 | Cc1cn(C2CC(n3cc(Cn4cc(I)c(=O)[nH]c4=O)nn3)C(CO)O2)c(=O)[nH]c1=O (centres undefined) |  | > 100 µM (inactive) | > 100 µM (inactive) | 0.0119 µM (active) |  | > 100 µM (inactive) | > 100 µM (inactive) | > 100 µM (inactive) | > 100 µM (inactive) | > 100 µM (inactive) | > 100 µM (inactive) | > 100 µM (inactive) | > 100 µM (inactive) | > 100 µM (inactive) | > 100 µM (inactive) | > 100 µM (inactive) | > 100 µM (inactive) | > 100 µM (inactive) | > 100 µM (inactive) | 
3 | CNc1ccc([N+](=O)[O-])cc1C(=O)N1CCC[C@H]1CO | > 100 µM (inactive) | > 100 µM (inactive) | > 100 µM (inactive) | > 100 µM (inactive) | > 100 µM (inactive) | > 100 µM (inactive) | > 100 µM (inactive) | > 100 µM (inactive) | > 100 µM (inactive) | > 100 µM (inactive) | > 100 µM (inactive) | > 100 µM (inactive) |  | > 100 µM (inactive) | > 100 µM (inactive) | > 100 µM (inactive) | > 100 µM (inactive) | > 100 µM (inactive) | > 100 µM (inactive) | > 100 µM (inactive)
4 | C[C@]12CC[C@H](O)CC1=CC[C@@H]1[C@@H]2CC[C@]2(C)NC(=O)/C(=C\c3ccccc3)C[C@@H]12 | 19.8 µM (inactive) | 15.2 µM (inactive) | 17.4 µM (inactive) |  | 39.6 µM (inactive) | 14.5 µM (inactive) | 15.8 µM (inactive) | 24.3 µM (inactive) | 26.5 µM (inactive) | 13.3 µM (inactive) | 13.5 µM (inactive) | 16.5 µM (inactive) | 14.6 µM (inactive) | 16.7 µM (inactive) | 12.9 µM (inactive) | 14.7 µM (inactive) | 19.6 µM (inactive) | 28.2 µM (inactive) | 18.3 µM (inactive) | 14.3 µM (inactive)
5 | c1ccc(COC2C3COC(O3)C(OCc3ccccc3)C2OCc2ccccc2)cc1 (centres undefined) | 64.4 µM (inactive) | > 100 µM (inactive) | 27.5 µM (inactive) | 13.2 µM (inactive) | 27.9 µM (inactive) | 29.6 µM (inactive) | 32.2 µM (inactive) | 63.7 µM (inactive) | 6.75 µM (inactive) | 35.2 µM (inactive) | 45.4 µM (inactive) | 94.4 µM (inactive) | > 100 µM (inactive) |  | 34.4 µM (inactive) | 27.3 µM (inactive) | 22.8 µM (inactive) | 70.5 µM (inactive) | > 100 µM (inactive) | 
6 | O=C(N/N=C\c1ccc([N+](=O)[O-])cc1)Nc1ccccc1 |  | > 100 µM (inactive) |  | > 100 µM (inactive) | > 100 µM (inactive) | > 100 µM (inactive) | > 100 µM (inactive) | > 100 µM (inactive) | > 100 µM (inactive) | > 100 µM (inactive) | > 100 µM (inactive) | > 100 µM (inactive) |  | > 100 µM (inactive) | > 100 µM (inactive) | > 100 µM (inactive) | > 100 µM (inactive) | > 100 µM (inactive) | > 100 µM (inactive) | > 100 µM (inactive)
